Our source for the IC50, Ki and inhibition values is ChEMBL document CHEMBL1938384, “Lysine demethylases inhibitors” (J Med Chem, 2011).

Test [1] deals with T1, Lysine-specific demethylase 2A (Homo sapiens, UniProt Q9Y2K7).
T1 sequence (Q9Y2K7 whole entry): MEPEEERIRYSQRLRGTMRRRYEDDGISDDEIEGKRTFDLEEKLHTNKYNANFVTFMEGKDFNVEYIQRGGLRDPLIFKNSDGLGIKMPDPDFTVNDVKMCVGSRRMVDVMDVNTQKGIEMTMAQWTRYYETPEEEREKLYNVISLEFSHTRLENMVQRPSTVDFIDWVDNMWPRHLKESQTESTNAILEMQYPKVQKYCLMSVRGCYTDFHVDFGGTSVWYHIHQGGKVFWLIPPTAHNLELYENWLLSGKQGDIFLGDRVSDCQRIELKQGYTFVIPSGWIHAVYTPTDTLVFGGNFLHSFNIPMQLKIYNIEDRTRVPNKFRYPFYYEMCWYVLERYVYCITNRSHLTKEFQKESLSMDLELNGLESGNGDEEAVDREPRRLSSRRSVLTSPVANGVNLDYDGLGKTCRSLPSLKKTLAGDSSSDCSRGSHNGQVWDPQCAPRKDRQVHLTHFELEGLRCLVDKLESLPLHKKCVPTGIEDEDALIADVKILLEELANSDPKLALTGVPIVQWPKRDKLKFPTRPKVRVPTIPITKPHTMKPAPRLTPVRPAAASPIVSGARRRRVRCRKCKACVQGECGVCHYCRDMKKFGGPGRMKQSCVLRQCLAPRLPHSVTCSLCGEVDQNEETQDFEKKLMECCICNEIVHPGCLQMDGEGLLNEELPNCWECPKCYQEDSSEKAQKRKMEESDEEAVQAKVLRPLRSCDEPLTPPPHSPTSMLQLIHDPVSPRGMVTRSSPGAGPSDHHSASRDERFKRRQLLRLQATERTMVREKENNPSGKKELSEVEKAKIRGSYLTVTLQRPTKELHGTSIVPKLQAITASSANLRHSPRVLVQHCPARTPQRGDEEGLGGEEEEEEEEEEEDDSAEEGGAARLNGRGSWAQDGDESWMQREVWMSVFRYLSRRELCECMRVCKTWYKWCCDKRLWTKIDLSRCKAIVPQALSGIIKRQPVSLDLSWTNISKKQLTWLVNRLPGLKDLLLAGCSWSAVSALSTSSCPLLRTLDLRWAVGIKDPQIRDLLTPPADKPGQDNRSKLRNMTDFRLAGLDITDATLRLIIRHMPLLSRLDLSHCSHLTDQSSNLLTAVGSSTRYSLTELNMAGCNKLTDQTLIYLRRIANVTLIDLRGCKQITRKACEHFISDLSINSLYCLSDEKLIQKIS

Test [2] has as its target T2, Amine oxidase [flavin-containing] A (Homo sapiens, UniProt P21397).
T2 sequence (P21397 whole entry): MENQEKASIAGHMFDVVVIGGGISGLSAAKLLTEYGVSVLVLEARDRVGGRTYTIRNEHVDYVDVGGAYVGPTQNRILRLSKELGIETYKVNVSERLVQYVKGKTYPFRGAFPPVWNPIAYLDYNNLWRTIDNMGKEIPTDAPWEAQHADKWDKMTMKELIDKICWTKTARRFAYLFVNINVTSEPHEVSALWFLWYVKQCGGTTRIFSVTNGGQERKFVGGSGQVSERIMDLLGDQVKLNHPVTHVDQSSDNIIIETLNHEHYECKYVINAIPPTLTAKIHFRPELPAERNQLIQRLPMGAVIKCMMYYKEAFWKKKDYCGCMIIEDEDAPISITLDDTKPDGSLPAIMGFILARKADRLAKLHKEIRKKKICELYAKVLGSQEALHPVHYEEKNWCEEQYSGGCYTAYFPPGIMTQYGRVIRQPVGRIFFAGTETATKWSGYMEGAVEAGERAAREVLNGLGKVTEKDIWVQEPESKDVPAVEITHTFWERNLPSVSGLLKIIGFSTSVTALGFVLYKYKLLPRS

Test [3] has as its target T3, Amine oxidase [flavin-containing] B (Homo sapiens, UniProt P27338).
T3 sequence (P27338 whole entry): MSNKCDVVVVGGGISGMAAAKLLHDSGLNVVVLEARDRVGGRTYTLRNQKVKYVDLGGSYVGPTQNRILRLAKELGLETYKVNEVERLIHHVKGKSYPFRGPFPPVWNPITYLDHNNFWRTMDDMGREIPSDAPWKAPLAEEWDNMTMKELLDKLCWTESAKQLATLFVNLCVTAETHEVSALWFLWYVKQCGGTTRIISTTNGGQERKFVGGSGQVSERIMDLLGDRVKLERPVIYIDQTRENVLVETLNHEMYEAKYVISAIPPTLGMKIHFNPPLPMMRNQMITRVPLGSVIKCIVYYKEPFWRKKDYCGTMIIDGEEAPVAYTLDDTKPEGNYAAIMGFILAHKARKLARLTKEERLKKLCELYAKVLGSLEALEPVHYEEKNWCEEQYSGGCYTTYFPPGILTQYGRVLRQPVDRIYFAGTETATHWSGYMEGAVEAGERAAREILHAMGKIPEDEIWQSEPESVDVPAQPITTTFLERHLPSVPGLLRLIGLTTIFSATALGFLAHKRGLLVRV

In test [4] the target is T4, Egl nine homolog 1 (Homo sapiens, UniProt Q9GZT9).
Target sequence in this assay (Q9GZT9 2-426 limits assumed): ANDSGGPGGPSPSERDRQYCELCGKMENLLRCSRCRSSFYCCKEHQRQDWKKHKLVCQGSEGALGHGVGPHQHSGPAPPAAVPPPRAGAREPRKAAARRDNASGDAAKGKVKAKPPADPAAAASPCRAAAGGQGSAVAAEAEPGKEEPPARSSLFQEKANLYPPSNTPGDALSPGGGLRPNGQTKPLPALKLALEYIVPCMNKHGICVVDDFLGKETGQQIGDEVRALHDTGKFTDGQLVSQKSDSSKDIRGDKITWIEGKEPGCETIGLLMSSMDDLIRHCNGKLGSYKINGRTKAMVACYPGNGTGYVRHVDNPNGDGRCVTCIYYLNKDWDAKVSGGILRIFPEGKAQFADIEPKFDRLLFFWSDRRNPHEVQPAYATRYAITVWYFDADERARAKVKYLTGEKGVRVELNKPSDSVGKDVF
For test [5], the target named is T4, Egl nine homolog 1. The source holds these as a separate data set.
Target sequence in this assay (Q9GZT9 whole entry): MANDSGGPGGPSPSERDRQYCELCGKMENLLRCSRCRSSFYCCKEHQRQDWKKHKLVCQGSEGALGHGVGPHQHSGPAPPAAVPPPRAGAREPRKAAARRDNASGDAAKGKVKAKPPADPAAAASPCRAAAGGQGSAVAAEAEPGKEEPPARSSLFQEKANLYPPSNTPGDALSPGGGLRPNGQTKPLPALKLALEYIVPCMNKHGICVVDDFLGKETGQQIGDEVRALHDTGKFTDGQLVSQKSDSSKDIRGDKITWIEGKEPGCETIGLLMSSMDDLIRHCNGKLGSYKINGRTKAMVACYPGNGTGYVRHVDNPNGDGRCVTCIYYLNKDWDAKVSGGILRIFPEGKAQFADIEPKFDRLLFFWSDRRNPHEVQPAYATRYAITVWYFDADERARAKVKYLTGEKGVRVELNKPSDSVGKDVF
For test [6], the target named is Hypoxia-inducible factor 1-alpha inhibitor (Homo sapiens, UniProt Q9NWT6).
Test [7] has as its target T5, Lysine-specific demethylase 4A (Homo sapiens, UniProt O75164).
T5 sequence (O75164 whole entry): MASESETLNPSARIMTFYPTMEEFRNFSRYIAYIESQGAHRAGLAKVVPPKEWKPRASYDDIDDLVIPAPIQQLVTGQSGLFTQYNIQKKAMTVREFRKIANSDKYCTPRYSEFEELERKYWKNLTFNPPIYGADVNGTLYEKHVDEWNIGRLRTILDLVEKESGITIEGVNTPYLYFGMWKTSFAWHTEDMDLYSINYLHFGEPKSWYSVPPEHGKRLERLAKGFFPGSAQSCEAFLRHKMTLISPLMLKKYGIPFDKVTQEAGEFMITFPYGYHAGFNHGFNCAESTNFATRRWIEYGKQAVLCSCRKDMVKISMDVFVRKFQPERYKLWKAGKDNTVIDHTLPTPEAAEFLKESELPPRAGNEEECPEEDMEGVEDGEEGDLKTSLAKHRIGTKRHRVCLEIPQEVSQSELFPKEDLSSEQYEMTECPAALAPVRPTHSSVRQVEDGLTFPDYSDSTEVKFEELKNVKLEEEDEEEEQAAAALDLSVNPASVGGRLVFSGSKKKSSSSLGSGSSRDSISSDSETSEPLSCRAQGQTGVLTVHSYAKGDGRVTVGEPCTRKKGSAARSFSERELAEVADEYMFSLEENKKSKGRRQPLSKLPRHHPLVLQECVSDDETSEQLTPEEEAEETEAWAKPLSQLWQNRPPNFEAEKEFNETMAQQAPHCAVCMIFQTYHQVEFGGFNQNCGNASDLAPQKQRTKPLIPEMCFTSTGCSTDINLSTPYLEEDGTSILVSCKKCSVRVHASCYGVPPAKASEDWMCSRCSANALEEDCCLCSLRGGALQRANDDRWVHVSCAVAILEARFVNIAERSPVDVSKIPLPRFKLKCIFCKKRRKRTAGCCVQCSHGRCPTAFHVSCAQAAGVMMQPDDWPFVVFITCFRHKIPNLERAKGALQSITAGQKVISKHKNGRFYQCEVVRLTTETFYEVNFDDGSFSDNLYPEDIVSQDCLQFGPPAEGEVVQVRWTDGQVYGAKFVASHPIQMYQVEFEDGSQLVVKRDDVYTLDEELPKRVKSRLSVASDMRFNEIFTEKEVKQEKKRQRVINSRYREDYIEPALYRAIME

Test [8] has as its target Lysine-specific demethylase 6B (Homo sapiens, UniProt O15054). Kind of test: Inhibition of KDM6B.
In test [9] the target is T6, Lysine-specific demethylase 4C (Homo sapiens, UniProt Q9H3R0).
T6 sequence (Q9H3R0 whole entry): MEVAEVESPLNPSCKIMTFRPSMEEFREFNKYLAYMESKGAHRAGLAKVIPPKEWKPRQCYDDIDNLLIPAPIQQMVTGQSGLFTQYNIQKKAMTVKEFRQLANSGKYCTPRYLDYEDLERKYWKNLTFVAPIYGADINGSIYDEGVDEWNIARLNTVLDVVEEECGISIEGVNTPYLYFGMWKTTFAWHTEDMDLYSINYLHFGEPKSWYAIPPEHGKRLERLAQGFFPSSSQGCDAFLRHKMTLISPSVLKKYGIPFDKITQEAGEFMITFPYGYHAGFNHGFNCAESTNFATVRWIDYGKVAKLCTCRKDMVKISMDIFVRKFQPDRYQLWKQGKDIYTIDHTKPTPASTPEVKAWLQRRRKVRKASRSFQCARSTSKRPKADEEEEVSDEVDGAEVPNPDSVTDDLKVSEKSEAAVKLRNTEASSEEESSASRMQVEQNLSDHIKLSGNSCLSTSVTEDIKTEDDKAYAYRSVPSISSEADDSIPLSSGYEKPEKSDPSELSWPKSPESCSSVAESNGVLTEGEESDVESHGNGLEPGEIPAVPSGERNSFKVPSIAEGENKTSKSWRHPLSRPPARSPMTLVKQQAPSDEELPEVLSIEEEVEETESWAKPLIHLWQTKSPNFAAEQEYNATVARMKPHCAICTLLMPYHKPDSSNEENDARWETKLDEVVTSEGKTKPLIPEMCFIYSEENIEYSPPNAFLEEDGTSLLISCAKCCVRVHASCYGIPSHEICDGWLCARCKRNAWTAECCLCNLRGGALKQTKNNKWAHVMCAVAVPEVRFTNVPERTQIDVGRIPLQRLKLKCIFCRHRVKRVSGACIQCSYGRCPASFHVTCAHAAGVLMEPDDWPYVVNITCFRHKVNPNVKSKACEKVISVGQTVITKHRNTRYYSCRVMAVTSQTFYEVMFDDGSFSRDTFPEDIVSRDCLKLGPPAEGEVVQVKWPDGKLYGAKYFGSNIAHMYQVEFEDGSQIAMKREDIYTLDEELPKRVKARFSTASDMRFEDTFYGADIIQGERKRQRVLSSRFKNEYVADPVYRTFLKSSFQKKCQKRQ

In the next test the target is Prolyl hydroxylase EGLN3 (Homo sapiens, UniProt Q9H6Z9). Kind of test: Inhibition of PHD3.
The target of another test is Prolyl hydroxylase EGLN2 (Homo sapiens, UniProt Q96KS0).
The target of test [10] is Histone lysine demethylase PHF8 (Homo sapiens, UniProt Q9UPP1). Kind of test: Inhibition of KDM7B.

pIC50, pKi: −log10 of the molar value. The source made the active and inactive calls. The calls are words filed in the database; no cut-off is given here. Bounds are passed on as bounds.

Chain of Hypoxia-inducible factor 1-alpha inhibitor (Q9NWT6 whole entry): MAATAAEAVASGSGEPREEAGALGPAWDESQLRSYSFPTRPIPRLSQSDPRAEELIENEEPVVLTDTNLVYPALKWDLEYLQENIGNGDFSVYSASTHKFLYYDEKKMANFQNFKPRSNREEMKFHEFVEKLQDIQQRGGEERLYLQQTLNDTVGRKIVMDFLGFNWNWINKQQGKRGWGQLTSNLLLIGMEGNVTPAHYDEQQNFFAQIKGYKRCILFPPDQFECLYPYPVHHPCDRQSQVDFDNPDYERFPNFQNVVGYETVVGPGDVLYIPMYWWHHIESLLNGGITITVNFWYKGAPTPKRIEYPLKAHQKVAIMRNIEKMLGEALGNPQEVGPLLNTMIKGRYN
Chain of Prolyl hydroxylase EGLN3 (Q9H6Z9 whole entry): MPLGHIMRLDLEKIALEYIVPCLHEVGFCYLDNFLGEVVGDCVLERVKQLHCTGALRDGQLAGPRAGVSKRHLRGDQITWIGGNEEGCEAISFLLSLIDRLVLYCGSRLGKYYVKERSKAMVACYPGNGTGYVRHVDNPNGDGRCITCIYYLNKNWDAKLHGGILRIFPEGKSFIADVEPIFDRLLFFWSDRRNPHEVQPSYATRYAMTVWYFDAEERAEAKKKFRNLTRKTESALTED
Chain of Histone lysine demethylase PHF8 (Q9UPP1 whole entry): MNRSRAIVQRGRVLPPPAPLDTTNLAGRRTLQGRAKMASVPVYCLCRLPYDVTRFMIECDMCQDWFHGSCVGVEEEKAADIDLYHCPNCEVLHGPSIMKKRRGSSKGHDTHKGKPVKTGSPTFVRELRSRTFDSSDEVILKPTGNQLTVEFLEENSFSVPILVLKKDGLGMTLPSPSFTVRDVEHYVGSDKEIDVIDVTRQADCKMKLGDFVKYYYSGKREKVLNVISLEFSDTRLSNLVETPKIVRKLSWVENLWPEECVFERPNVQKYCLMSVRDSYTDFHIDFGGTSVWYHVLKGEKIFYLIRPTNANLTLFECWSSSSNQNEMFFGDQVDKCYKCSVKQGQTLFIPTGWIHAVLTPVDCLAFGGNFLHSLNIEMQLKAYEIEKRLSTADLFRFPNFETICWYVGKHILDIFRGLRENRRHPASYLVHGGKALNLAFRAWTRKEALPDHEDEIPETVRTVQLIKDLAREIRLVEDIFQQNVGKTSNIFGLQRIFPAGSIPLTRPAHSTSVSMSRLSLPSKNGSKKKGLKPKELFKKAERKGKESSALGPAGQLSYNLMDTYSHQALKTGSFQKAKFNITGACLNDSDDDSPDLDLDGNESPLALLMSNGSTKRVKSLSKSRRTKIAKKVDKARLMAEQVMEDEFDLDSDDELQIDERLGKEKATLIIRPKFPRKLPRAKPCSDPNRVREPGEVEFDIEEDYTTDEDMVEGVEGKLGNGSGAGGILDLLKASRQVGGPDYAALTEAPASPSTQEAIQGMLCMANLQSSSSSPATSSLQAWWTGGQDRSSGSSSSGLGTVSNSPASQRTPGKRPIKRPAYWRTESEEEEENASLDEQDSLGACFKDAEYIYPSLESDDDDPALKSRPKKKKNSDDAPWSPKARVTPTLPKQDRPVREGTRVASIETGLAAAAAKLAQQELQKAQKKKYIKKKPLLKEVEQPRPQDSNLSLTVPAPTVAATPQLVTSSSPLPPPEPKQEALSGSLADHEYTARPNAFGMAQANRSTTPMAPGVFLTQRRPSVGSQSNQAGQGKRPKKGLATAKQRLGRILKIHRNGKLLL
Chain of Lysine-specific demethylase 6B (O15054 whole entry): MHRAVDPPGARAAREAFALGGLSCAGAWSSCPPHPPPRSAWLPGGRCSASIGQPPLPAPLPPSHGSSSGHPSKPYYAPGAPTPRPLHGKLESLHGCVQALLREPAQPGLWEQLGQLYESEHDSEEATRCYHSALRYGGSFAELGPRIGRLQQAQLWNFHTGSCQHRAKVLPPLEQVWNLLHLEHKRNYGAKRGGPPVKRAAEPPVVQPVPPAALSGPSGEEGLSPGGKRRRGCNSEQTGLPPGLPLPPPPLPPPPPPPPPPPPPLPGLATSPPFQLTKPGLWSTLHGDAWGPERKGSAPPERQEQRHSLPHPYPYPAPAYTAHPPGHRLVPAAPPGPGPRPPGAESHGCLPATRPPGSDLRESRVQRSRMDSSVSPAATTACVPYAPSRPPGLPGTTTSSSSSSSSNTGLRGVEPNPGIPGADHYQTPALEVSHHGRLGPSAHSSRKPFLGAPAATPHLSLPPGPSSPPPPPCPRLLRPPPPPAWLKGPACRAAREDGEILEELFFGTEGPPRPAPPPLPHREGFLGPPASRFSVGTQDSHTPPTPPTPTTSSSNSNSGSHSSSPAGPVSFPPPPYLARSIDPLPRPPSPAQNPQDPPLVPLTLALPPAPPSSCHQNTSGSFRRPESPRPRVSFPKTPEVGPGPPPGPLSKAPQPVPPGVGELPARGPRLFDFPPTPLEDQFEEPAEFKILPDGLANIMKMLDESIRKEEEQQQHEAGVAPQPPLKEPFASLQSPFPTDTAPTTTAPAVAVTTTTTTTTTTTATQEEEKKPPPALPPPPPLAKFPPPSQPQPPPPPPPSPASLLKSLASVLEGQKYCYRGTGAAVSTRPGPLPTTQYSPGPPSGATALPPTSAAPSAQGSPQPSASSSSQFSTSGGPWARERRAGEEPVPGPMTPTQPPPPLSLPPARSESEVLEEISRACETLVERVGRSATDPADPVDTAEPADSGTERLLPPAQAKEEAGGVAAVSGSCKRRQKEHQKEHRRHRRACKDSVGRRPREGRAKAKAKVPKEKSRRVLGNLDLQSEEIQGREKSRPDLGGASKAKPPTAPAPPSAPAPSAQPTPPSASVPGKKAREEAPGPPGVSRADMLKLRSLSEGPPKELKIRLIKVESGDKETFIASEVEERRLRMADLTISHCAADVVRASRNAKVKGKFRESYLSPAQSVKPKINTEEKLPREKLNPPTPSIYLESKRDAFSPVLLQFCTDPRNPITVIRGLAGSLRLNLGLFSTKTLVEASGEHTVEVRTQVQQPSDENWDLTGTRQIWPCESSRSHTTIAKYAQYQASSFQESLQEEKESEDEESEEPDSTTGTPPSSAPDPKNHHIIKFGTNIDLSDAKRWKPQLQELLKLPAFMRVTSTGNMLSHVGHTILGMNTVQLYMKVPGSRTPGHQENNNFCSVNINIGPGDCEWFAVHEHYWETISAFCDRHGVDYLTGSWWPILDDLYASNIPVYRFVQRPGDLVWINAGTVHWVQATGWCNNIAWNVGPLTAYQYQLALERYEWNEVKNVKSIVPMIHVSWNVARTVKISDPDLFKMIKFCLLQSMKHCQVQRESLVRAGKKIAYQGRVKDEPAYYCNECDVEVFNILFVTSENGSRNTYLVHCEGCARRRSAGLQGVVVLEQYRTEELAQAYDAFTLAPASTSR
Chain of Prolyl hydroxylase EGLN2 (Q96KS0 whole entry): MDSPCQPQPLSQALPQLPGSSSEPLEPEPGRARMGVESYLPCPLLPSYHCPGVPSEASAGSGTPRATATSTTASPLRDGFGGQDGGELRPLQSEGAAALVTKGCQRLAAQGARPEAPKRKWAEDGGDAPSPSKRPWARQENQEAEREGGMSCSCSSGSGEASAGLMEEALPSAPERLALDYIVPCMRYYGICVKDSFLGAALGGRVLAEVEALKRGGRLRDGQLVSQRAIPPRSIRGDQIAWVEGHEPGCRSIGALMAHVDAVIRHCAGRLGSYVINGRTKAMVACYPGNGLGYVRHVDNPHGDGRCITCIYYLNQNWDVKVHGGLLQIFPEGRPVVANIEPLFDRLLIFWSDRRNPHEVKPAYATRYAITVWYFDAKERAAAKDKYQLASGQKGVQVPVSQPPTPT

As for `O=C(O)CC[C@H](O)C(=O)O`, in [1], the pIC50 (usually the IC50 on a negative log10 scale, so that one unit is a factor of ten) is 4.32.
For `N[C@@H]1C[C@H]1c1ccc(OCC[C@H](NC(=O)c2ccccc2)C(=O)NCc2ccccc2)cc1`, the pKi (commonly the Ki on a negative log10 scale, so that one unit is a factor of ten) was 3.60 in test [2] and 2.77 in test [3].
For `O=C(O)C(=O)N[C@H](Cc1ccc(OS(=O)(=O)c2ccc(Br)cc2)cc1)C(=O)O`, the inhibition result at Egl nine homolog 1 [4] is “inactive”.
Regarding `O=C(O)c1ccnc(C(=O)O)c1Nc1ccccc1F`, on Egl nine homolog 1 [5], the pIC50 is < 3.40.
Turning to `NC1CC1c1ccc(NC(=O)C(Cc2ccccc2)NC(=O)OCc2ccccc2)cc1` (configuration not stated), the pKi in test [3] was < 3.88.
In turn, `O=C(O)CC[C@@H](O)C(=O)O` had a pIC50 in test [1] of 3.97.
Take `NC1CC1c1cccc(OCC[C@H](NC(=O)c2ccccc2)C(=O)NCc2ccccc2)c1` (some centres not stated): the pKi in test [2] is 3.64; in test [3], 3.13.
As to `O=C(O)c1ccnc2c(O)cccc12`, the pIC50 against Egl nine homolog 1 [5] was 4.85; in [6], 4.68.
In [7], `S=C(SSC(=S)N1CCCC1)N1CCCC1` [BIS(PYRROLIDINYLTHIOCARBONYL)DISULFIDE] showed a pIC50 of 5.48.
`O=C(O)/C=C/C(=O)N(O)CCCCNCc1ccc(COC(=O)Nc2cccc3ccccc23)cc1`: the pIC50 in test [7] was 5.37; against Egl nine homolog 1 [5], 4.08; in test [8], 4.37; in test [9], 5.47; in [6] it was 4.66; on Prolyl hydroxylase EGLN3 it was 4.51. Also, the pIC50 at Prolyl hydroxylase EGLN2 is 4.27; in test [10], 5.00.
Regarding `NC1CC1c1cc(F)cc(F)c1OCc1ccccc1` (configuration not stated), the pKi was 3.96 in [2] and 4.77 in test [3].
